Literature values in patent US8679548B2, “Active bromine containing biocidal compositions and their preparation” (Albemarle Corporation, priority 1998, dated 2014).

ClBr [Bromine Chloride (BrCl), Bromine Chloride]
Vapor Pressure (25° C.): 1800 mm

BrBr [Bromine (Br2), Bromine]
Vapor Pressure (25° C.): 214 mm
